Series [1] concerns Peripheral Neuropathy in a Mouse Caused by Paclitaxel. Type of series: in vivo, Balb/c mice. As to conditions: 6 mg/kg paclitaxel + 100 mg/kg orally daily from Day 6 (therapy); from Day 12 onwards. The source says:
Six to seven-week-old female Balb/c mice were used for the tests. All the mice were acclimated for seven days after arrival. Then, the mice were grouped into the following four groups: a control group, a group receiving paclitaxel, a group receiving xylitol, and a group receiving paclitaxel and xylitol (a group receiving paclitaxel+xylitol). Each group consisted of five mice.
On Day 8 of acclimation, the mice in the group receiving paclitaxel and the group receiving paclitaxel+xylitol were intraperitoneally administered with paclitaxel at a dose of 6 mg/kg. This day was designated as Day 0 of administration. Thereafter, these mice were intraperitoneally administered with paclitaxel at a daily dose of 6 mg/kg on Day 7 and Day 14.
The mice in the group receiving xylitol and the group receiving paclitaxel+xylitol were orally administered with xylitol at a dose of 5 mg/kg daily from Day 0.
The mice in the four groups described in (4) of the present example (Example 1) were placed in a cage, and the avoidance response frequency (score) was measured by pressing a filament with a bending force of 0.16 g against the back of the hind paw.
Six to seven-week-old female Balb/c mice were used for the tests as with Example 1. All the mice were acclimated for seven days after arrival. Then, the mice were grouped into the following four groups: a control group, a group receiving paclitaxel, a group receiving xylitol, and a group receiving paclitaxel and xylitol (a group receiving paclitaxel+xylitol). Each group consisted of five mice. […]
For the mice in the four groups described in (6) of the present example (Example 2), the avoidance response frequency (score) was measured by pressing a filament with a bending force of 0.16 g against the back of the hind paw. […]
The mice in the four groups described in (4) of the present example (Example 3) were placed in a cage, and the avoidance response frequency (score) was measured by pressing a filament with a bending force of 0.16 g against the back of the hind paw. […]

For series [2] the following is noted: as is well known; except diarrhea no side effects due to overdose observed; cited from earlier work.

For the compound `OC[C@@H](O)[C@H](O)CO` [D-threitol], the avoidance response score entry in series [1] was “maintained a score clearly lower than that of the group receiving paclitaxel”. For the same compound, in series [2], the “safety for the human body” value is listed as “safe for the human body”.

For the compound `OC[C@@H](O)[C@H](O)[C@@H](O)CO` [xylitol], the avoidance response score entry in series [1] is listed as “maintained a score clearly lower than that of the group receiving paclitaxel”. The “safety for the human body” value in series [2] was “safe for the human body”.

With `OC[C@H](O)[C@H](O)[C@H](O)[C@@H](O)CO` [L-talitol], the avoidance response score result in series [1] is listed as “maintained a score clearly lower than that of the group receiving paclitaxel”. The “safety for the human body” value in series [2] was “safe for the human body”.

The values above are taken from patent US20240099989A1, “AGENT FOR PREVENTING OR IMPROVING PERIPHERAL NEUROPATHY” (KINKI UNIVERSITY, priority 2021, published 2024).
